Test results published in US20230250066A1, “HERBICIDAL CINNOLINE DERIVATIVES” (SYNGENTA CROP PROTECTION AG, priority 2020, published 2023).

What was measured:
Type in all cases: in vivo
[1] = test system: Amaranthus retoflexus (AMARE); assay: Post-emergence herbicidal test; details: 1000 g/ha unless otherwise stated, evaluated after 13 days
How it was run: (§1)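 Pots sown in standard soil were kept in a glasshouse (24° C./16° C. day/night, 14 hours light, 65% humidity) and sprayed at 1000 g/ha unless otherwise stated in acetone/water (50:50) with 0.5% Tween 20. Percentage damage was scored after 13 days on a 0–5 scale.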

Solanum nigrum (SOLNI) [2] = assay: Post-emergence herbicidal test; details: 1000 g/ha unless otherwise stated, evaluated after 13 days
How it was run: as §1

[3] = test system: Ipomoea hederacea (IPOHE); assay: Post-emergence herbicidal test; details: 1000 g/ha unless otherwise stated, evaluated after 13 days
How it was run: as §1

[4] = test system: Echinochloa crus-galli (ECHCG); assay: Post-emergence herbicidal test; details: 1000 g/ha unless otherwise stated, evaluated after 13 days
How it was run: as §1

Setaria faberi (SETFA) [5] = assay: Post-emergence herbicidal test; details: 1000 g/ha unless otherwise stated, evaluated after 13 days
How it was run: as §1

Lolium perenne (LOLPE) [6] = assay: Post-emergence herbicidal test; details: 1000 g/ha unless otherwise stated, evaluated after 13 days
How it was run: as §1

Solanum nigrum (SOLNI) [7] = assay: Pre-emergence herbicidal test; details: 1000 g/ha, evaluated after 13 days
[8] = test system: Ipomoea hederacea (IPOHE); assay: Pre-emergence herbicidal test; details: 1000 g/ha, evaluated after 13 days
Setaria faberi (SETFA) [9] = assay: Pre-emergence herbicidal test; details: 1000 g/ha, evaluated after 13 days
Lolium perenne (LOLPE) [10] = assay: Pre-emergence herbicidal test; details: 1000 g/ha, evaluated after 13 days
[11] = test system: Amaranthus retoflexus (AMARE); assay: Pre-emergence herbicidal test; details: 1000 g/ha, evaluated after 13 days
[12] = test system: Echinochloa crus-galli (ECHCG); assay: Pre-emergence herbicidal test; details: 1000 g/ha, evaluated after 13 days

| Compound | percentage damage caused to the plant, AMARE (five-point scale) [1] | percentage damage caused to the plant, SOLNI (five-point scale) (Solanum nigrum (SOLNI) [2]) | percentage damage caused to the plant, IPOHE (five-point scale) [3] | percentage damage caused to the plant, ECHCG (five-point scale) [4] | percentage damage caused to the plant, SETFA (five-point scale) (Setaria faberi (SETFA) [5]) | percentage damage caused to the plant, LOLPE (five-point scale) (Lolium perenne (LOLPE) [6]) | percentage damage caused to the plant, five-point scale, SOLNI (Solanum nigrum (SOLNI) [7]) | percentage damage caused to the plant, five-point scale, IPOHE [8] | percentage damage caused to the plant, five-point scale, SETFA (Setaria faberi (SETFA) [9]) | percentage damage caused to the plant, five-point scale, LOLPE (Lolium perenne (LOLPE) [10]) | percentage damage caused to the plant, five-point scale, AMARE [11] | percentage damage caused to the plant, five-point scale, ECHCG [12] |
| --- | --- | --- | --- | --- | --- | --- | --- | --- | --- | --- | --- | --- |
| CSc1cccc2c1c(=O)c(C(=O)O)nn2-c1ccc(OC(F)(F)F)cc1 [Compound P1, 5-methylsulfanyl-4-oxo-1-[4-(trifluoromethoxy)phenyl]cinnoline-3-carboxylic acid] | 0 (0=0%) | 0 (0=0%) | 0 (0=0%) | 0 (0=0%) | 0 (0=0%) | 0 (0=0%) | 0 (0=0%) | 0 (0=0%) | 0 (0=0%) | 0 (0=0%) | 0 (0=0%) | 0 (0=0%) |
| CS(=O)(=O)c1cccc2c1c(=O)c(C(=O)O)nn2-c1ccc(OC(F)(F)F)cc1 [Compound P2, 5-methylsulfonyl-4-oxo-1-[4-(trifluoromethoxy)phenyl]cinnoline-3-carboxylic acid] | 1 (1=10-20%) | 4 (4=61-80%) | 2 (2=21-40%) | 4 (4=61-80%) | 4 (4=61-80%) | 4 (4=61-80%) | 4 (4=61-80%) | 1 (1=10-20%) | 5 (5=81-100%) | 5 (5=81-100%) | 1 (1=10-20%) | 5 (5=81-100%) |
| COC(=O)c1nn(-c2ccc(OC(F)(F)F)cc2)c2cccc(S(C)(=O)=O)c2c1=O [Compound P3, methyl 5-methylsulfonyl-4-oxo-1-[4-(trifluoromethoxy)phenyl]cinnoline-3-carboxylate] | 1 (1=10-20%) | 1 (1=10-20%) | 1 (1=10-20%) | 4 (4=61-80%) | 4 (4=61-80%) | 4 (4=61-80%) | 1 (1=10-20%) | 1 (1=10-20%) | 4 (4=61-80%) | 4 (4=61-80%) | 1 (1=10-20%) | 4 (4=61-80%) |
| CSc1cccc2c1c(=O)c(C(=O)O)nn2-c1ccc(Cl)cc1 [Compound P4, 1-(4-chlorophenyl)-5-methylsulfanyl-4-oxo-cinnoline-3-carboxylic acid] | 0 (0=0%) | 0 (0=0%) | 0 (0=0%) | 0 (0=0%) | 0 (0=0%) | 0 (0=0%) | 0 (0=0%) | 0 (0=0%) | 0 (0=0%) | 0 (0=0%) | 0 (0=0%) | 0 (0=0%) |
